Experimental findings from US8877944B2, “3-oxo-2,3-dihydro-1H-isoindole-4-carboxamides as PARP inhibitors” (Nerviano Medical Sciences S.R.L., priority 2009, dated 2014) are described below.

pIC50, pKd: −log10 of the molar value.

For one experiment, the target named is PARP-2 FL (Homo sapiens (Human), UniProt Q9UGN5). Put plainly: Fluorescence polarization probe displacement assay, PARP-2. It counts as binding. Particulars: read-out: PARP-2 DC50; half maximal displacement concentration. On the technique in general: Fluorescence polarisation rises when a labelled molecule tumbles more slowly, as on binding a larger partner.
Sequence of PARP-2 FL (Q9UGN5 whole entry): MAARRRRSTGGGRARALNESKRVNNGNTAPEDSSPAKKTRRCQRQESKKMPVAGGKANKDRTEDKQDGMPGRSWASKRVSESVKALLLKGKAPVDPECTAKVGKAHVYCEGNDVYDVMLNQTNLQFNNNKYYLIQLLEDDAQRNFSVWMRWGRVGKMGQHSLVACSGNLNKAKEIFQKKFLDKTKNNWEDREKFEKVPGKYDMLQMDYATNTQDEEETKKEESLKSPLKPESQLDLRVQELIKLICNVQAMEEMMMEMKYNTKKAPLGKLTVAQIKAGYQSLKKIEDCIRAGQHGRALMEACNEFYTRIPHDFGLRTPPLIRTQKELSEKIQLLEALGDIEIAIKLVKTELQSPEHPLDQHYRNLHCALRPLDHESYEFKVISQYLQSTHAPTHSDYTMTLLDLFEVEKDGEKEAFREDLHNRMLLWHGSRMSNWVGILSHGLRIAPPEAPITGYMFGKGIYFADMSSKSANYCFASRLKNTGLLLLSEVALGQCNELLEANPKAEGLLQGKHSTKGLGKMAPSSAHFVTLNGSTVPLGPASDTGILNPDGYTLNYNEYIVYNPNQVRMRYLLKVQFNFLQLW
The next experiment deals with PARP-1 FL (Homo sapiens (Human), UniProt P09874). Put plainly: Fluorescence polarization probe displacement assay, PARP-1. The experiment is classed as binding. The conditions noted are these: for pKd: compound P1 as the probe, 250 nM PARP-1; for DC50: half maximal displacement concentration.
Sequence of PARP-1 FL (P09874 whole entry): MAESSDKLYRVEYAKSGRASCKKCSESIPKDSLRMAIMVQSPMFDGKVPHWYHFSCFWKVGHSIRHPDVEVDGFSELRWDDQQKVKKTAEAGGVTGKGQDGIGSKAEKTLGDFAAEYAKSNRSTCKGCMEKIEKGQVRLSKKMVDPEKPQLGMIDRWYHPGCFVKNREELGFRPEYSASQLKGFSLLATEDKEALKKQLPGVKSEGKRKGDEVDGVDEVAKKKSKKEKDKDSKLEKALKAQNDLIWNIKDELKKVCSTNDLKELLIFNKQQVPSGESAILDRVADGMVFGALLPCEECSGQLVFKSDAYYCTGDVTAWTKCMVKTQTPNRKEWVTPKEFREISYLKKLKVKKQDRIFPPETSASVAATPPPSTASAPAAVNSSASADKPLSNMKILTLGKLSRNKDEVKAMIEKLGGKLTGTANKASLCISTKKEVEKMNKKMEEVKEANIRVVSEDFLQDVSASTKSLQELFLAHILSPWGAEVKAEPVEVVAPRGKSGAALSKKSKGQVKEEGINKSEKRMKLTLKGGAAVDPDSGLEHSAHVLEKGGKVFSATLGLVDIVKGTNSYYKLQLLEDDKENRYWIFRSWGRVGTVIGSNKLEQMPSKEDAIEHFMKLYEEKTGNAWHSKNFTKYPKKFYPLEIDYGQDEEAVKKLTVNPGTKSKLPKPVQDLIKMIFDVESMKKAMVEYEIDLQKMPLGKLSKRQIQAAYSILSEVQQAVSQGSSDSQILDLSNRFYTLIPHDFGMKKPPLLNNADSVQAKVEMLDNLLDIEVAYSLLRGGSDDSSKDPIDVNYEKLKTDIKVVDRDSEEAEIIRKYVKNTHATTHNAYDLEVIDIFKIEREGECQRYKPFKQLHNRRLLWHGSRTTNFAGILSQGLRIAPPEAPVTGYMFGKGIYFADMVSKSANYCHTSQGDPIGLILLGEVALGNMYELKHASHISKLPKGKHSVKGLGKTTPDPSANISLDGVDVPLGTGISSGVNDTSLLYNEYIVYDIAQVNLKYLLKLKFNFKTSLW
In experiment [1] the test system is PAR formation in HeLa cells. In words: Cellular PAR assay: inhibition of hydrogen peroxide induced PAR formation. Particulars: Homo sapiens, read-out: PAR assay IC50.
Experimental: Compounds potencies were evaluated by measuring the inhibition of poly (ADP-ribose) (PAR) chains formation as a marker for PARP-1 inhibition.
Cellular activity of PARP-1 inhibitors was assessed by measuring the inhibition of the hydrogen peroxide induced PAR formation in HeLa cells (ECACC). Cellular PAR levels were measured by immunocytochemistry, and quantified using an ArrayScan vTi instrument (Cellomics Thermo Scientific).
Test compounds were then added at the required concentration for 30′. […] Concentration curves were prepared in MEM/10% FCS from compound stocks in DMSO, and final DMSO concentration was 0.002% (v/v). Duplicate wells for each concentration point were prepared with a typical highest compound concentration of 20 μM and serial dilution 1:3. […] Non-specific binding sites were blocked by incubating wells for 30 min in PBS containing 5% (w/v) FBS 0.05% tween20. […] After washing further 3 times in PBS, cellular PAR immunoreactivity was assessed using the ArrayScan vTi instrument, with a Zeiss 10×0.5 N.A. objective, and applying the Cytotoxicity.V3 algorithm (Cellomics/Thermo Fisher) with a XF100 filter. At least 10 fields, corresponding to at least 900 cells, were read for each well.
The following formula is used: IC50=Bottom+(Top-Bottom)/(1+10^((LogEC50−X))); X is the logarithm of concentration. IC50 is the response; IC50 starts at Bottom and goes to Top with a sigmoid shape.

Experimental for PARP-1 FL: (§1) Affinity evaluation of the tested compounds and their selectivity with respect to the different PARP isoforms of interest was assessed in a displacement assay.
(§2) The polarization signal can be measured, e.g., by a plate reader such as the Saphire2 (Tecan). The displacement ability of the test compound is in correlation with the compound affinity for the NAD pocket of the enzyme.
(§3) The assay performances were then evaluated (Z′ factor) as well as the displacement of the probe by its scaffold and known commercially available PARP inhibitors. In all of the experiments, the polarization signal was measured using a Saphire2 plate reader (Tecan). Data analysis was performed using Dynafit software. In particular, titration data were fitted to the following equilibria: Enzyme+probe <==> Complex Enzyme-probe, while displacement data were fitted to the following equilibria: Enzyme+probe <==> Complex Enzyme-probe, Enzyme+Compound <==> Complex Enzyme-Compound, whereby binding of probe and compound on the enzyme are mutually exclusive (pure competitive mechanism). Displacement data were also fitted using Excell spreadsheet (Microsoft Inc. Seattle, USA) to a four parameter logistic model (4PL), or Hill-Slope model to calculate DC50s where the DC50 value represents the compound concentration at which the polarization signal is diminished by 50% compared to untreated controls.
(§4) KD values, are the average of three independent experiments.
Experimental for PARP-2 FL: as §1, §2, §3, §4

For `Cc1c(CN2CCC(N3Cc4cccc(C(N)=O)c4C3=O)CC2)cnn1C` [Compound 34, 2-{1-[(1,5-Dimethyl-1H-pyrazol-4-yl)methyl]piperidin-4-yl}-3-oxo-2,3-dihydro-1H-isoindole-4-carboxamide], the DC50 on PARP-2 FL is above 10000 nM; on PARP-1 FL it was 340 nM. For the same compound, at PARP-1 FL, the negative-log Kd (pKd) (commonly −log10 of the Kd, conventionally taken in molar units) is 6.89. The pIC50 (commonly −log10 of the IC50, conventionally taken in molar units) in experiment [1] was 6.05.

For the compound `NC(=O)c1cccc2c1C(=O)N(CC1CCN(Cc3ccc(F)cc3)CC1)C2` [Compound 51, 2-{[1-(4-Fluorobenzyl)piperidin-4-yl]methyl}-3-oxo-2,3-dihydro-1H-isoindole-4-carboxamide], the DC50 at PARP-2 FL was 5680 nM. At PARP-1 FL, this compound gave a pKd above 7.52 and a DC50 below 250 nM. Moreover, the negative-log IC50 (pIC50) in experiment [1] is 6.80.

Consider `CC(C)c1ccc(CN2CCC(N3Cc4cccc(C(N)=O)c4C3=O)CC2)cc1` [Compound 38, 3-oxo-2-{1-[4-(propan-2-yl)benzyl]piperidin-4-yl}-2,3-dihydro-1H-isoindole-4-carboxamide], for which, at PARP-2 FL, the DC50 is above 10000 nM. For the same compound, on PARP-1 FL, the pKd was above 7.52 and the DC50 was below 250 nM. In addition, the pIC50 in experiment [1] was 6.59.

For the compound `Cc1ccc(CN2CCC(N3Cc4cccc(C(N)=O)c4C3=O)CC2)s1` [Compound 45, 2-{1-[(5-Methylthiophen-2-yl)methyl]piperidin-4-yl}-3-oxo-2,3-dihydro-1H-isoindole-4-carboxamide], the DC50 on PARP-2 FL is above 10000 nM. On PARP-1 FL, this compound had a pKd above 7.52 and a DC50 below 250 nM. For the same compound, the negative-log IC50 (pIC50) in experiment [1] was 6.44.

As to `NC(=O)c1cccc2c1C(=O)N(CCCN1CCN(c3cccc(Cl)c3)CC1)C2` [Compound 46, 2-{3-[4-(3-Chloro-phenyl)-piperazin-1-yl]-propyl}-3-oxo-2,3-dihydro-1H-isoindole-4-carboxylic acid amide], the DC50 was 1460 nM on PARP-2 FL and below 250 nM on PARP-1 FL. In addition, in experiment [1], the pIC50 is 6.40.

On PARP-1 FL, `NC(=O)c1cccc2c1C(=O)N(C1CCN(Cc3cccc4[nH]ccc34)CC1)C2` [Compound 28, 2-[1-(1H-indol-4-ylmethyl)piperidin-4-yl]-3-oxo-2,3-dihydro-1H-isoindole-4-carboxamide] showed a pKd of 7.47 and a DC50 below 250 nM. In experiment [1], the negative logarithm of the IC50 (pIC50) was 6.72.

In the case of `NC(=O)c1cccc2c1C(=O)N(C1CCN(Cc3ccc4ccccc4n3)CC1)C2` [Compound 16, 3-oxo-2-[1-(quinolin-2-ylmethyl)piperidin-4-yl]-2,3-dihydro-1H-isoindole-4-carboxamide], at PARP-2 FL, the DC50 was 3200 nM. At PARP-1 FL, this compound had a negative-log Kd (pKd) above 7.52 and a DC50 below 250 nM.

As to `CC(C)Oc1ccc(CN2CCC(N3Cc4cccc(C(N)=O)c4C3=O)CC2)cc1` [Compound 44, 3-oxo-2-{1-[4-(propan-2-yloxy)benzyl]piperidin-4-yl}-2,3-dihydro-1H-isoindole-4-carboxamide], the DC50 is above 10000 nM at PARP-2 FL and below 250 nM at PARP-1 FL. Also, the pIC50 in experiment [1] was 6.30.

As for `NC(=O)c1cccc2c1C(=O)N(C1CCN(Cc3ccccc3F)CC1)C2` [Compound 12, 2-[1-(2-Fluorobenzyl)piperidin-4-yl]-3-oxo-2,3-dihydro-1H-isoindole-4-carboxamide], the DC50 on PARP-2 FL was above 10000 nM. Besides, on PARP-1 FL, the pKd is above 7.52 and the DC50 is below 250 nM.

With `Cc1ncsc1CN1CCC(N2Cc3cccc(C(N)=O)c3C2=O)CC1` [Compound 26, 2-{1-[(4-Methyl-1,3-thiazol-5-yl)methyl]piperidin-4-yl}-3-oxo-2,3-dihydro-1H-isoindole-4-carboxamide], the DC50 on PARP-2 FL was 6500 nM. On PARP-1 FL, this compound showed a pKd above 7.52 and a DC50 below 250 nM. The negative-log IC50 (pIC50) in experiment [1] was 6.70.

As to `COC[C@H]1CC[C@H](N2CCC(N3Cc4cccc(C(N)=O)c4C3=O)CC2)CC1` [Compound 6, 2-{1-[Trans-4-(methoxymethyl)cyclohexyl]piperidin-4-yl}-3-oxo-2,3-dihydro-1H-isoindole-4-carboxamide], the DC50 on PARP-2 FL is above 10000 nM. In addition, at PARP-1 FL, the pKd was above 7.52 and the DC50 is below 250 nM. Besides, in experiment [1], the pIC50 is 5.64.

Turning to `NC(=O)c1cccc2c1C(=O)N(C1CCN(CC3CCN(Cc4ccccc4)CC3)CC1)C2` [Compound 27, 2-{1-[(1-Benzylpiperidin-4-yl)methyl]piperidin-4-yl}-3-oxo-2,3-dihydro-1H-isoindole-4-carboxamide], at PARP-2 FL, the DC50 is above 10000 nM. At PARP-1 FL, this compound showed a negative logarithm of the Kd (pKd) above 7.52 and a DC50 of 260 nM. The negative-log IC50 (pIC50) in experiment [1] is 6.49.

With `COC[C@H]1CC[C@@H](N2CCC(N3Cc4cccc(C(N)=O)c4C3=O)CC2)CC1` [Compound 5, 2-{1-[Cis-4-(methoxymethyl)cyclohexyl]piperidin-4-yl}-3-oxo-2,3-dihydro-1H-isoindole-4-carboxamide], the DC50 on PARP-2 FL was above 10000 nM. At PARP-1 FL, this compound showed a negative-log Kd (pKd) of 7.40 and a DC50 below 250 nM. Further, in experiment [1], the pIC50 is 5.34.

On to `CCc1ccc(CN2CCC(N3Cc4cccc(C(N)=O)c4C3=O)CC2)cc1` [Compound 43, 2-[1-(4-Ethylbenzyl)piperidin-4-yl]-3-oxo-2,3-dihydro-1H-isoindole-4-carboxamide], for which, on PARP-2 FL, the DC50 is above 10000 nM. At PARP-1 FL, this compound showed a negative-log Kd (pKd) above 7.52 and a DC50 below 250 nM. For the same compound, the negative-log IC50 (pIC50) in experiment [1] is 5.58.

On to `COc1ccc(CN2CCC(N3Cc4cccc(C(N)=O)c4C3=O)CC2)cc1` [Compound 39, 2-[1-(4-Methoxybenzyl)piperidin-4-yl]-3-oxo-2,3-dihydro-1H-isoindole-4-carboxamide], for which, on PARP-2 FL, the DC50 is above 10000 nM. At PARP-1 FL, this compound gave a negative logarithm of the Kd (pKd) above 7.52 and a DC50 below 250 nM. In experiment [1], the pIC50 is 6.48.

Take `Cc1ccc(CN2CCC(N3Cc4cccc(C(N)=O)c4C3=O)CC2)cc1C` [Compound 18, 2-[1-(3,4-Dimethylbenzyl)piperidin-4-yl]-3-oxo-2,3-dihydro-1H-isoindole-4-carboxamide]: the DC50 on PARP-2 FL is above 10000 nM. On PARP-1 FL, this compound gave a pKd above 7.52 and a DC50 below 250 nM. Besides, the pIC50 in experiment [1] is 5.15.

Turning to `COc1cccc(CN2CCC(N3Cc4cccc(C(N)=O)c4C3=O)CC2)c1` [Compound 35, 2-[1-(3-Methoxybenzyl)piperidin-4-yl]-3-oxo-2,3-dihydro-1H-isoindole-4-carboxamide], at PARP-2 FL, the DC50 was above 10000 nM. Further, on PARP-1 FL, the pKd was above 7.52 and the DC50 is below 250 nM. Besides, the pIC50 in experiment [1] is 6.52.

`NC(=O)c1cccc2c1C(=O)N(C1CCN(Cc3ccc(F)cc3F)CC1)C2` [Compound 17, 2-[1-(2,4-Difluorobenzyl)piperidin-4-yl]-3-oxo-2,3-dihydro-1H-isoindole-4-carboxamide]: at PARP-2 FL, the DC50 is above 10000 nM. Also, at PARP-1 FL, the pKd is above 7.52 and the DC50 is below 250 nM. Further, in experiment [1], the pIC50 is 5.24.

Take `NC(=O)c1cccc2c1C(=O)N(C1CCN(Cc3ccc4cc[nH]c4c3)CC1)C2` [Compound 30, 2-[1-(1H-indol-6-ylmethyl)piperidin-4-yl]-3-oxo-2,3-dihydro-1H-isoindole-4-carboxamide]: the DC50 on PARP-2 FL was 5970 nM; at PARP-1 FL, below 250 nM. Besides, the pIC50 in experiment [1] is 6.52.

In the case of `NC(=O)c1cccc2c1C(=O)N(C1CCN(Cc3ccc(F)cc3)CC1)C2` [Compound 11, 2-[1-(4-Fluorobenzyl)piperidin-4-yl]-3-oxo-2,3-dihydro-1H-isoindole-4-carboxamide], the DC50 at PARP-2 FL was above 10000 nM.

On to `CCCOc1ccc(CN2CCC(N3Cc4cccc(C(N)=O)c4C3=O)CC2)cc1` [Compound 37, 3-oxo-2-[1-(4-propoxybenzyl)piperidin-4-yl]-2,3-dihydro-1H-isoindole-4-carboxamide], for which the DC50 at PARP-2 FL is above 10000 nM. On PARP-1 FL, this compound had a negative logarithm of the Kd (pKd) above 7.52 and a DC50 below 250 nM. Besides, in experiment [1], the pIC50 is 6.59.

Regarding `NC(=O)c1cccc2c1C(=O)N(C1CCN(Cc3cccc(F)c3)CC1)C2` [Compound 13, 2-[1-(3-Fluorobenzyl)piperidin-4-yl]-3-oxo-2,3-dihydro-1H-isoindole-4-carboxamide], at PARP-2 FL, the DC50 was above 10000 nM. On PARP-1 FL, this compound showed a negative-log Kd (pKd) above 7.52 and a DC50 below 250 nM.

Regarding `Cn1cc(CN2CCC(N3Cc4cccc(C(N)=O)c4C3=O)CC2)cn1` [Compound 33, 2-{1-[(1-Methyl-1H-pyrazol-4-yl)methyl]piperidin-4-yl}-3-oxo-2,3-dihydro-1H-isoindole-4-carboxamide], the results for the DC50 on PARP-2 FL and at PARP-1 FL were above 10000 nM and below 250 nM, respectively. The pIC50 in experiment [1] is 5.96.

Consider `CCOc1cccc(CN2CCC(N3Cc4cccc(C(N)=O)c4C3=O)CC2)c1` [Compound 40, 2-[1-(3-Ethoxybenzyl)piperidin-4-yl]-3-oxo-2,3-dihydro-1H-isoindole-4-carboxamide], for which, at PARP-2 FL, the DC50 was above 10000 nM. On PARP-1 FL, this compound gave a pKd of 6.96 and a DC50 below 250 nM. For the same compound, the pIC50 in experiment [1] is 6.21.

As to `NC(=O)c1cccc2c1C(=O)N(C1CCN(Cc3cccc(Cl)c3)CC1)C2` [Compound 42, 2-[1-(3-Chlorobenzyl)piperidin-4-yl]-3-oxo-2,3-dihydro-1H-isoindole-4-carboxamide], the DC50 at PARP-2 FL came out at 4150 nM. At PARP-1 FL, this compound showed a pKd of 7.48 and a DC50 below 250 nM. In addition, the pIC50 in experiment [1] is 5.27.

In the case of `Cc1ccsc1CN1CCC(N2Cc3cccc(C(N)=O)c3C2=O)CC1` [Compound 36, 2-{1-[(3-Methylthiophen-2-yl)methyl]piperidin-4-yl}-3-oxo-2,3-dihydro-1H-isoindole-4-carboxamide], the DC50 at PARP-2 FL is 9400 nM. On PARP-1 FL, this compound gave a pKd above 7.52 and a DC50 below 250 nM. Moreover, the pIC50 in experiment [1] was 6.64.

`CC(C)Oc1ccccc1CN1CCC(N2Cc3cccc(C(N)=O)c3C2=O)CC1` [Compound 41, 3-oxo-2-{1-[2-(propan-2-yloxy)benzyl]piperidin-4-yl}-2,3-dihydro-1H-isoindole-4-carboxamide]: the results for the DC50 on PARP-2 FL and on PARP-1 FL were above 10000 nM and 470 nM, respectively.
